Laboratory results published in patent publication US20240316012A1, “METHODS FOR TREATING LYMPHOMA” (Northwestern University, priority 2023, published 2024).

Tested on: PDCD1-mutant lymphoma cells (primary CTCL)
Test: Inhibitor treatment of human cells in vitro, division index, PDCD1-mutant CTCL cells
Format: cell-based
Settings: 2-DG 1 mM, everolimus 0.1 μM, BMS-303141 10 μM; anti-CD3/anti-CD28 beads, 6 days; FIG. 7E
Description: FIGS. 7A-7H show ACLY dependency and AP-1 activation in human PDCD1 defective T-NHL. […] CNA, copy number aberrations. FIG. 7B GSEA for the indicated gene sets based on RNA-seq data from the 21 CTCL patients shown in (a). NES, normalized enrichment score; FDR, false discovery rate. […] P=one-way ANOVA and two-sided Student's t-test. Shown are the mean±SD and individual data points. […] FACS-sorted malignant cells were stimulated with anti-CD3/anti-CD28 beads, and 2-NBDG uptake was determined at the indicated time points. P=two-sided Student's t-test. Shown are the mean±SEM and individual data points. […] CFSE, carboxyfluorescein succinimidyl ester. P=two-sided Student's t-test. The data are presented as the mean±SEM and individual data points. […] Legend as in (5a). […] FIG. 7H GSEA for the indicated gene sets with RNA-seq data from 21 CTCL PDCD1mut” or “PDCD1 wt, and three patients with hyperprogression. NES, normalized enrichment score; FDR, false discovery rate. FIGS. 7A and 7B, Data from a single experiment with 21 patients. FIGS. 7C and 7D, Data from one experiment with three patients per group and three healthy donors. FIG. 7E, Data from one experiment with three patients and three healthy donors. FIGS. 7F and 7G, Data from one experiment with three patients per group. FIG. 7H, Data from a single experiment.
Isolation of primary human CTCL cells. This study was approved by the Northwestern University Institutional Review Board. Patients provided informed consent for inclusion in the study. […] The tumor burden for each patient was determined using well-validated clinical markers, taking whichever value was higher between Sezary cell counts or the CD26 negative cell number by clinical flow cytometry. These were analyzed in conjunction with white blood cell and absolute lymphocyte counts.
Inhibitor treatment of human cells in vitro Malignant CTCL cells and CD4^+ T cells from healthy donors were isolated as previously described. […] After 6 days, the cells were analyzed by flow cytometry, and the division index was determined using the FlowJo proliferation tool (v10.6, FlowJo LLC).

Compound | viability, division and proliferation of PDCD1-mutant cancer cells (relative division index)
COc1ccc(-c2ccccc2)cc1NS(=O)(=O)c1cc(Cl)cc(Cl)c1O [BMS-303141] | significantly impaired cell proliferation
O=CC[C@@H](O)[C@H](O)[C@H](O)CO [2-DG, 2-deoxy-D-glucose] | significantly impaired cell proliferation
